Reference: patent US7998965B2, “Glutamate aggrecanase inhibitors” (Wyeth LLC, priority 2005, dated 2011)
Like-named read-outs stand apart in the source and are kept apart here.

Assays:
[1] = molecular target: T1, purified recombinant human Aggrecanase-2 (Ag2t-Phe628-Strep) (Homo sapiens, UniProt Q9UNA0); assay: In vitro fluorescence screen for Aggrecanase-2 inhibitors; assay type: biochemical; settings: for IC50: read-out: Agg 2 IC50; for inhibition at 11 µM: at 11000 (nM), read-out: Agg 2 % at concentration
T1 construct: the form used is denoted as Ag2t-Phe628-Strep (MW=41,737)
T1 sequence (Q9UNA0 262-628): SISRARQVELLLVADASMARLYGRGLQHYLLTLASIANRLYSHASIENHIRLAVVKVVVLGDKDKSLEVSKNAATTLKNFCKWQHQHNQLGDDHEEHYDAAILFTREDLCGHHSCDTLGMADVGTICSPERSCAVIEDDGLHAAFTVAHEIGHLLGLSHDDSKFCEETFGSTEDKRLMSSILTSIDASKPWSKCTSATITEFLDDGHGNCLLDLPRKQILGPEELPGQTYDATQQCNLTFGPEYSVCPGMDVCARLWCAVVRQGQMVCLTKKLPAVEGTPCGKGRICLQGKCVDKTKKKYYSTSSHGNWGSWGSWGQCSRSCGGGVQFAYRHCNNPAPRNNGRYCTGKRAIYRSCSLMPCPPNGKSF

[2] = molecular target: T2, purified recombinant human Aggrecanase-1 (rAgg1) (Homo sapiens, UniProt O75173); assay: In vitro fluorescence screen for Aggrecanase-1 inhibitors; assay type: biochemical; set-up: Agg1 % at concentration: scale not given here; settings: for IC50: read-out: Agg1 IC50
T2 sequence (O75173 213-837): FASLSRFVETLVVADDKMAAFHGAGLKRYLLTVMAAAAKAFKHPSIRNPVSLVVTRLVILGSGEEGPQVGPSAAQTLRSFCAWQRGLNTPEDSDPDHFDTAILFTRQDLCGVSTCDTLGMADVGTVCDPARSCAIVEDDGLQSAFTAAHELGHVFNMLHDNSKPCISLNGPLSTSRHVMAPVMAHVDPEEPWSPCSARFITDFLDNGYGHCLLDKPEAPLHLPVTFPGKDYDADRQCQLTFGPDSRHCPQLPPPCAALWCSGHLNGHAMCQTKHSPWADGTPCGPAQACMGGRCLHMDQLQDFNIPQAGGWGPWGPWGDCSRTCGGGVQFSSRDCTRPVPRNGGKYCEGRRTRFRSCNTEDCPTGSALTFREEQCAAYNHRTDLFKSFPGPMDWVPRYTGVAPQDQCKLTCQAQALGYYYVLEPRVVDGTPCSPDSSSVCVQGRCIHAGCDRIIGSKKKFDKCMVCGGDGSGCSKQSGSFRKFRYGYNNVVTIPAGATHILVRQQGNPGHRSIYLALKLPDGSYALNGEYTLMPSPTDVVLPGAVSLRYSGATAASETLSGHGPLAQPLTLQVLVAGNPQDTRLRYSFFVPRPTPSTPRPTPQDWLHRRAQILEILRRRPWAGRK

IC50 ([1]; Table 2) [nM] | IC50 ([2]; Table 2) [nM] | IC50 ([1]; Table 3) [nM] | IC50 ([2]; Table 3) [nM] | Compound | also measured
> 20000 | > 25000 |  |  | O=C(O)CC[C@H](NC(=O)c1ccc(/C=C/C(=O)c2ccccc2)cc1)C(=O)NCc1ccccc1 [Example 12I, N-benzyl-N^2-{4-[(1E)-3-oxo-3-phenylprop-1-en-1-yl]benzoyl}-L-α-glutamine] | 
~22000 | ~8000 |  |  | Nc1cccc(C#Cc2ccc(C(=O)N[C@@H](CCC(=O)O)C(=O)NCc3ccccc3)cc2)c1 [Example 12J, N^2-{4-[(3-aminophenyl)ethynyl]benzoyl}-N-benzyl-L-α-glutamine] | 
> 22000 | ~22000 |  |  | COc1cccc(C#Cc2ccc(C(=O)N[C@@H](CCC(=O)O)C(=O)NCc3ccccc3)cc2)c1 [Example 12L, N-benzyl-N^2-{4-[(3-methoxyphenyl)ethynyl]benzoyl}-L-α-glutamine] | 
327 | 44 |  |  | CCc1cccc(OCc2ccc(-c3ccc(C(=O)N[C@@H](CCC(=O)O)C(=O)NC(C)(C)Cc4ccccc4)cc3)cc2)c1 [Example 15AA, N-(1,1-dimethyl-2-phenylethyl)-N^2-({4′-[(3-ethylphenoxy)methyl]biphenyl-4-yl}carbonyl)-L-α-glutamine] | 
~3130 | 510 |  |  | O=C(O)CC[C@H](NC(=O)c1ccc(-c2ccc(OCc3ccccc3)cc2)cc1)C(=O)NCc1ccccc1 [Example 15J, N-benzyl-N^2-{[4′-(benzyloxy)biphenyl-4-yl]carbonyl}-L-α-glutamine] | 
 |  | 379 | < 30 | COc1cc(CNC(=O)[C@H](CCC(=O)O)NC(=O)c2ccc(-c3cccc(OCc4ccccc4)c3)cc2)cc(OC)c1OC [Example 15K, N^2-{[3′-(benzyloxy)biphenyl-4-yl]carbonyl}-N-(3,4,5-trimethoxybenzyl)-L-α-glutamine] | 
 |  | 789 | < 30 | COc1cccc(COc2cccc(-c3ccc(C(=O)N[C@@H](CCC(=O)O)C(=O)NCc4cc(OC)c(OC)c(OC)c4)cc3)c2)c1 [Example 15M, N^2-({3′-[(3-methoxybenzyl)oxy]biphenyl-4-yl}carbonyl)-N-(3,4,5-trimethoxybenzyl)-L-α-glutamine] | 
 |  | 600 |  | O=C(O)CC[C@H](NC(=O)c1ccc(-c2ccc(OCc3cccc(-c4ccccc4)c3)cc2)cc1)C(=O)NCc1ccccc1 [Example 15U, N-benzyl-N^2-{[4′-(biphenyl-3-ylmethoxy)biphenyl-4-yl]carbonyl}-L-α-glutamine] | inhibition at 11 µM ([1]; Table 3): 30%; Agg1 % at concentration ([2]; Table 3, at 100 (nM)): 53%; Agg1 % at concentration ([2]; Table 3, at 1000 (nM)): 53%

Further lines, the molecule ahead of its results:

Compound | IC50 ([1]; Table 2) [nM] | IC50 ([2]; Table 2) [nM] | IC50 ([1]; Table 3) [nM] | IC50 ([2]; Table 3) [nM] | also measured
O=C(O)CC[C@H](NC(=O)c1ccc(-c2ccccc2)cc1)C(=O)NCCc1ccc(-c2cccs2)cc1 [Example 10D, N^2-(biphenyl-4-ylcarbonyl)-N^1-{2-[4-(2-thienyl)phenyl]ethyl}-L-α-glutamine] |  |  |  |  | IC50 ([1]; Table 1): 3200 nM; IC50 ([2]; Table 1): 480 nM
C#Cc1ccc(-c2ccc(CCNC(=O)[C@H](CCC(=O)O)NC(=O)c3ccc(-c4ccccc4)cc3)cc2)cc1 [Example 10F, N^2-(biphenyl-4-ylcarbonyl)-N^1-[2-(4′-ethynylbiphenyl-4-yl)ethyl]-L-α-glutamine] |  |  |  |  | IC50 ([1]; Table 1): > 30000 nM; IC50 ([2]; Table 1): 130 nM
O=C(O)CC[C@H](NC(=O)c1ccc(-c2ccccc2)cc1)C(=O)NCCc1ccc(-c2ccccn2)cc1 [Example 10G, N^2-(biphenyl-4-ylcarbonyl)-N^1-[2-(4-pyridin-2-ylphenyl)ethyl]-L-α-glutamine] |  |  |  |  | IC50 ([1]; Table 1): 4400 nM; IC50 ([2]; Table 1): 1000 nM
O=C(O)CC[C@H](NC(=O)c1ccc(-c2ccccc2)cc1)C(=O)NCCc1cccc(-c2ccc(C(F)(F)F)cc2)c1 [Example 10K, N^2-(biphenyl-4-ylcarbonyl)-N^1-{2-[4′-(trifluoromethyl)biphenyl-3-yl]ethyl}-L-α-glutamine] |  |  |  |  | IC50 ([1]; Table 1): > 100000 nM; IC50 ([2]; Table 1): 380 nM
COc1ccc(-c2cccc(CCNC(=O)[C@H](CCC(=O)O)NC(=O)c3ccc(-c4ccccc4)cc3)c2)cc1 [Example 10L, N^2-(biphenyl-4-ylcarbonyl)-N^1-[2-(4′-methoxybiphenyl-3-yl)ethyl]-L-α-glutamine] |  |  |  |  | IC50 ([1]; Table 1): 2000 nM; IC50 ([2]; Table 1): 130 nM
O=C(O)CC[C@H](NC(=O)c1ccc(-c2ccc3ccccc3c2)cc1)C(=O)NCc1ccccc1 [Example 12F, N-benzyl-N^2-[4-(2-naphthyl)benzoyl]-L-α-glutamine] | 3000 to 8000 | ~3000 |  |  | 
O=C(O)CC[C@H](NC(=O)c1ccc(C#Cc2ccccc2)cc1)C(=O)NCc1ccccc1 [Example 12G, N-benzyl-N^2-[4-(phenylethynyl)benzoyl]-L-α-glutamine] | 11700 | > 25000 |  |  | 
O=C(O)CC[C@H](NC(=O)c1ccc(C#CC2(O)c3ccccc3-c3ccccc32)cc1)C(=O)NCc1ccccc1 [Example 12H, N-benzyl-N^2-{4-[(9-hydroxy-9H-fluoren-9-yl)ethynyl]benzoyl}-L-α-glutamine] | 1630 | 1200 |  |  | 
O=C(O)CC[C@H](NC(=O)c1ccc(C#CC(O)(c2ccccc2)c2ccccc2)cc1)C(=O)NCc1ccccc1 [Example 12K, N-benzyl-N^2-[4-(3-hydroxy-3,3-diphenylprop-1-yn-1-yl)benzoyl]-L-α-glutamine] | > 22000 | ~25000 |  |  | 
COc1cccc(OCc2ccc(-c3ccc(C(=O)N[C@@H](CCC(=O)O)C(=O)NC(C)(C)Cc4ccccc4)cc3)cc2)c1 [Example 15BB, N-(1,1-dimethyl-2-phenylethyl)-N^2-({4′-[(3-methoxyphenoxy)methyl]biphenyl-4-yl}carbonyl)-L-α-glutamine] | 527 | 53 |  |  | 
O=C(O)CC[C@H](NC(=O)c1ccc(-c2ccc(OCc3cccc(F)c3)cc2)cc1)C(=O)NCc1ccccc1 [Example 15I, N-benzyl-N^2-({4′-[(3-fluorobenzyl)oxy]biphenyl-4-yl}carbonyl)-L-α-glutamine] | 1590 | 430 |  |  | 
COc1cc(COc2cccc(-c3ccc(C(=O)N[C@@H](CCC(=O)O)C(=O)NCc4cc(OC)c(OC)c(OC)c4)cc3)c2)cc(OC)c1 [Example 15L, N^2-({3′-[(3,5-dimethoxybenzyl)oxy]biphenyl-4-yl}carbonyl)-N-(3,4,5-trimethoxybenzyl)-L-α-glutamine] |  |  | 413 | 47 | 
COc1cc(COc2ccc(-c3ccc(C(=O)N[C@@H](CCC(=O)O)C(=O)NC(C)(C)Cc4ccc(F)cc4)cc3)cc2)cc(OC)c1 [Example 15N, N^2-({4′-[(3,5-dimethoxybenzyl)oxy]biphenyl-4-yl}carbonyl)-N-[2-(4-fluorophenyl)-1,1-dimethylethyl]-L-α-glutamine] |  |  | 103 | 91 | 
CC(C)(Cc1ccccc1)NC(=O)[C@H](CCC(=O)O)NC(=O)c1ccc(-c2ccc(COc3cc(C(F)(F)F)cc(C(F)(F)F)c3)cc2)cc1 [Example 15O, N^2-[(4′-{[3,5-bis(trifluoromethyl)phenoxy]methyl}biphenyl-4-yl)carbonyl]-N-(1,1-dimethyl-2-phenylethyl)-L-α-glutamine] |  |  | 3130 | 52 | 
CC(C)(Cc1ccccc1)NC(=O)[C@H](CCC(=O)O)NC(=O)c1ccc(-c2ccc(COc3ccc4c(c3)OCO4)cc2)cc1 [Example 15P, N^2-({4′-[(1,3-benzodioxol-5-yloxy)methyl]biphenyl-4-yl}carbonyl)-N-(1,1-dimethyl-2-phenylethyl)-L-α-glutamine] |  |  | 255 | < 30 | 
COc1cc(OC)cc(OCc2ccc(-c3ccc(C(=O)N[C@@H](CCC(=O)O)C(=O)NCc4cccc(C)c4)cc3)cc2)c1 [Example 15Q, N^2-({4′-[(3,5-dimethoxyphenoxy)methyl]biphenyl-4-yl}carbonyl)-N-(3-methylbenzyl)-L-α-glutamine] |  |  | 1940 | 158 | 
COc1cc(OC)cc(OCc2cccc(-c3ccc(C(=O)N[C@@H](CCC(=O)O)C(=O)NCc4cccc(C)c4)cc3)c2)c1 [Example 15R, N^2-({3′-[(3,5-dimethoxyphenoxy)methyl]biphenyl-4-yl}carbonyl)-N-(3-methylbenzyl)-L-α-glutamine] |  |  |  | 560 | inhibition at 11 µM ([1]; Table 3): 48%
Cc1cccc(CNC(=O)[C@H](CCC(=O)O)NC(=O)c2ccc(-c3cccc(COc4cc(C(F)(F)F)cc(C(F)(F)F)c4)c3)cc2)c1 [Example 15S, N^2-[(3′-{[3,5-bis(trifluoromethyl)phenoxy]methyl}biphenyl-4-yl)carbonyl]-N-(3-methylbenzyl)-L-α-glutamine] |  |  |  |  | Agg 2 % at concentration ([1]; Table 3, at 33000 (nM)): 41%; Agg1 % at concentration ([2]; Table 3, at 1850 (nM)): 30%
